Results from the supplement of paper PMC11997997.

What was measured:
[1] = system: murine bone marrow-derived macrophages; assay: area under cytotoxicity dose-response curve (AUC (% cytotoxicity x dose, relative)); higher = more cytotoxic; conditions: duration: 6 days; dose range: 0.13-80 uM, 8 points
In short: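 Cytotoxicity is given as the area under the dose–response curve, computed in GraphPad Prism version 10. Primary murine bone marrow-derived macrophages in opaque 384-well plates received an 8-point, 2.5-fold dilution series (final 80–0.13 μM) for 6 days at 37 °C in 5% CO2. Viability was measured by Promega's CellTiter-Glo luminescence assay, with percent cytotoxicity normalised to vehicle and positive control wells.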

[2] = system: Mycobacterium tuberculosis CDC1551 (intracellular, in murine BMDM); assay: area under intracellular growth-inhibition dose-response curve (AUC (% inhibition x dose, relative)); higher = more potent; conditions: duration: 6 days; dose range: 0.13-80 uM, 8 points
In short: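 Luciferase-expressing M. tuberculosis CDC1551 was used at multiplicity of infection 1 for 1 h to infect primary murine bone marrow-derived macrophages in 384-well opaque plates, 24 h after seeding. Treatment followed for 6 days with an 8-dose, 2.5-fold series at final concentrations of 80–0.13 μM. GraphPad Prism was used to calculate the area under the growth-inhibition dose–response curve from Bright-Glo luciferin readings normalised to a reference drug control and the lowest-concentration wells.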

Row | Compound | area under cytotoxicity dose-response curve [1] | area under intracellular growth-inhibition dose-response curve [2]
1 | O=C(/C=C/c1cccs1)NCc1ccccc1 | 10.6 | 217
2 | CCCCC(=O)NCc1ccc(Cl)cc1 | 27.4 | 197
3 | O=C(NC1CCCCCC1)c1cccs1 | < 0 | 243
4 | O=C(c1cccs1)N1CCC(c2ccccc2)C1 (centres undefined) | < 0 | 189
5 | CC1CN(c2ccc(NC(=S)Nc3ccc(N4CC(C)OC(C)C4)cc3)cc2)CC(C)O1 (centres undefined) | 17.3 | 186
6 | Cc1ccc(C(=O)N2CCCC2)cc1Br | 8.65 | 166
7 | NS(=O)(=O)c1cccc(NC(=O)COC(=O)c2ccc(S(=O)(=O)N3CCOCC3)cc2)c1 | 10 | 112
8 | CCOc1ccccc1OCCCC(=O)Nc1cccc(S(=O)(=O)N2CCOCC2)c1 | 99 | 74
9 | COc1ccc(C2=NOC(CNC(N)=S)C2)cc1 (centres undefined) | 7.88 | 92.8
10 | O=C(NC1CCCC1)C1CC1c1ccccc1 (centres undefined) | < 0 | 135
11 | CCCC(=O)NC(=S)Nc1ccc(N2CCN(C(=O)c3cccs3)CC2)cc1 | < 0 | 274
12 | O=[N+]([O-])c1ccc(CN2CCN(c3ccc(Cl)cc3)CC2)o1 | 33.9 | 222
13 | O=C(N/N=C\c1ccc([N+](=O)[O-])o1)C1COc2ccccc2O1 (centres undefined) | 10.7 | 203
14 | O=C(/C=C/c1ccco1)c1ccc(NC(=O)C23CC4CC(CC(C4)C2)C3)cc1 | < 0 | 260
15 | O=C(CCCOc1ccc(Cl)cc1Cl)Nc1ccccc1C(=O)O | 0.729 | 83.7
16 | O=C(NCCC1CCCC1)c1cccs1 | 13.7 | 200
17 | CNc1cc(Cl)c2nonc2c1[N+](=O)[O-] | 10.1 | 3.12
18 | O=C(NC(=S)Nc1ccc(NC(=O)c2cccs2)cc1)c1ccco1 | < 0 | 268
19 | Nc1c2c(nc3ccn(Cc4ccccc4)c(=O)c13)CCC2 | 39.1 | 196
20 | Cc1ccc(OCCOC(=O)c2c(-c3ccccc3)noc2C)cc1 | < 0 | 200
21 | COc1ccc(S(=O)(=O)N2CCN(C(=O)C3CC(=O)N(c4ccccc4F)C3)CC2)cc1OC (centres undefined) | 27.9 | 104
22 | Cc1cc(OCC(=O)NNC(=O)c2ccncc2)ccc1C(C)C | 34.5 | 259
23 | O=C(Nc1ccc(C(=O)Oc2ccccc2)c(O)c1)c1ccccc1 | 93.1 | 210
24 | O=C(CC1CCCCC1)NCc1ccccn1 | 3.91 | 222
25 | O=C(NN=C(Cc1ccccc1)Cc1ccccc1)c1ccncc1 | 7.4 | 257
26 | O=C(NC1CCCCC1)c1ccc2snnc2c1 | < 0 | 156
27 | CCOc1ncnc2c1oc1nc(CC(C)C)c3c(c12)CC(C)(C)OC3 | 63.6 | 115
